Biological target: IDO1 (Homo sapiens, UniProt P14902)
Test: Kyn assay in IDO1-HEK293T cells (CMV promoter)
Type: cell-based
Design: host or cells: HEK293T
Conditions: absence of IFN-γ; L-Trp, 24 h; p-DMAB
Procedure: page 80: temperature and centrifuged for 10 min at 1800 x g. Afterwards, an equal volume of freshly prepared 2% (w/v) p-DMAB in glacial acetic acid (Ehrlich reagent) was added prior to measuring the absorbance at 492 nm and 650 nm on the Spark® Multimode Microplate Reader (Tecan, AT). To determine the Kyn levels, the absorbance of the Kyn-p-DMAB adduct […] was subtracted by the background absorbance A650 and normalized to the DMSO control. Data analysis was performed using a non-linear regression curve fit and GraphPad Prism 9.0 (GraphPad Software, Inc, US) to generate dose-response curves and obtain IC50 values. […] Afterwards, an equal volume of freshly prepared 2% (w/v) p-DMAB in glacial acetic acid (Ehrlich reagent) was added prior to measuring the absorbance at 492 nm and 650 nm on the Spark® Multimode Microplate Reader (Tecan, AT). To determine the Kyn levels, the absorbance of the Kyn-p-DMAB adduct […] was subtracted by the background absorbance A650 and normalized to the DMSO control. […] Afterwards, an equal volume of freshly prepared 2% (w/v) p-DMAB in glacial acetic acid (Ehrlich reagent) was added prior to measuring absorbance at 492 nm and 650 nm on the Spark® Multimode Microplate Reader (Tecan, AT). To determine the Kyn levels, the absorbance of the Kyn-p-DMAB adduct […] was subtracted by the background absorbance A650 and normalized to the DMSO control. […]

Chain of IDO1 (P14902 whole entry): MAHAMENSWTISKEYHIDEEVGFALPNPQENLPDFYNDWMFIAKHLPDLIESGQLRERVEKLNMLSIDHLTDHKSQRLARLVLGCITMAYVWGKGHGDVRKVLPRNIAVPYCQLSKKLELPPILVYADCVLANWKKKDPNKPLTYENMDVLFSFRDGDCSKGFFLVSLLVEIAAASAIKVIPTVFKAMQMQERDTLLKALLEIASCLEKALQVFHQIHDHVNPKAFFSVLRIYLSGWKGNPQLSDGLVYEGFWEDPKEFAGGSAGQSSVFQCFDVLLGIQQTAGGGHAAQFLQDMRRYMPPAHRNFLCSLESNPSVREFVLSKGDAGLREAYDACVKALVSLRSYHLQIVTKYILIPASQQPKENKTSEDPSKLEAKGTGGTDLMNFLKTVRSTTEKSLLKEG

- Kyn production in HEK293T cells transiently expressing IDO1: inhibited Kyn production
SMILES: CCOC(=O)C1=CC[C@](C(=O)OC)(c2cc3ccccc3n2C)N(S(=O)(=O)c2ccc(C)cc2)[C@@H]1C(=O)OC(C)(C)C [Compound 3d]

— PMC9804781, “Identification of a Novel Pseudo‐Natural Product Type IV IDO1 Inhibitor Chemotype” (Angewandte Chemie (International Ed. in English), 2022)
